According to patent US7655442B2, “Method for stabilizing macrolide compounds” (Eisai R&D Management Co., Ltd., priority 2004, dated 2010):
Where two headings read alike, the source gives them in different places.

What was measured:
[1] = Effects of various cyclodextrins on stabilization of macrolide compound 11107B in Dulbecco's PBS (-) at 25° C. (HPLC purity); assay type: physicochemical
Experimental: The macrolide compound 11107B (hereinafter sometimes abbreviated as 11107B) and various cyclodextrins were dissolved in concentrations of 0.1 mg/mL and 10 mg/mL, respectively, in Dulbecco's PBS (−). The 11107B solution and cyclodextrin solution were mixed in equal volumes, and incubation was immediately begun in at thermostatic incubator at 25° C. The solution was sampled at the start (0 hour) and after 24 and 48 hours had elapsed, the samples were analyzed by high performance liquid chromatography (HPLC) under the following analysis conditions (A), and the purity of the 11107B was calculated from the following equation using the chromatogram thus obtained.
<HPLC Analysis Conditions (A)>
Column: L-column, 4.6×150 mm, Chemicals Evaluation and Research Institute
Column temperature: 35° C.
Detection wavelength: 241 nm
Mobile phase A: 0.1% (v/v) formic acid•10% (v/v) acetonitrile
Mobile phase B: 0.1% (v/v) formic acid•90% (v/v) acetonitrile
Gradient program: B=10% (start)→B=40% (15 minutes)→B=100% (20 minutes)→B=10% (20.01 minutes)→B=10% (23 minutes, stop)<
(§1) <Calculation Equation> 11107B purity(%)=[peak surface area value of 11107B/(sum of peak surface area value of 11107B+peak surface area value of impurities and decomposition products)]×100

[2] = assay type: physicochemical
Experimental: The macrolide compound 11107B was dissolved in Dulbecco's PBS (−) in a concentration of 0.1 mg/mL, and β-CD in concentrations of 10, 3, 1, and 0.3 mg/mL. The 11107B solution and β-CD solution were mixed in equal volumes, and incubation was immediately begun in a 40° C. thermostatic incubator. The solution was sampled at the start (0 hour) and after 1, 2, 4 and 6 hours had elapsed, the samples were analyzed by HPLC under the analysis conditions (A) of Example 1, and the concentration of the 11107B was calculated. Since the plot of the 11107B concentration versus elapsed time was substantially linear, it was concluded that decomposition was occurring in pseudo first-order reaction, and the apparent decomposition rate constant kobs was calculated from the slope thereof. kobs was termed k0 when no β-CD was prevent. According to a report by Ma et al. (J. Pharm. Sci. (2000), 89 (2), 275-287), 1/(k0-kobs) was plotted against the inverse of the β-CD concentration, kc, which is kobs when a large excess of β-CD was present, was calculated from an intercept thereof, and the stabilization constant Kc was calculated from the slope.

[3] = Effect of β-CD and methylated β-CD on stabilization of 11107B in Dulbecco's PBS (-) at 25° C. (HPLC purity); assay type: physicochemical
Experimental: as §1
The macrolide compound 11107B and β-CD or methylated β-CD were dissolved in Dulbecco's PBS (−) in concentrations of 0.1 mg/mL and 10 mg/mL, respectively. The 11107B solution and β-CD solution were mixed in equal volumes, and incubation was immediately begun in thermostatic incubator at 25° C. The solution was sampled at the start (0 hour) and after 24, 48 and 120 hours had elapsed, and the samples were analyzed by HPLC under the following analysis conditions (B). The purity of the 11107B was calculated from the equation in Example 1 using the resulting chromatogram.
<HPLC Analysis Conditions (B)>
Column: Develosil ODS UG-3, 4.6×50 mm, 3 μm (made by Nomura Chemical)
Column temperature: 40° C.
Detection wavelength: 240 nm
Eluate: water/methanol gradient
• A=water, B=methanol • 45-55% B (0 to 5 minutes), 55% B (5 to 13 minutes) • 55-70% B (13 to 21 minutes), 45% B (21 to 25 minutes) Retention time: 13 minutes (11107B)

[4] = assay type: physicochemical; details: for Purity of macorolide compound 11107B: freeze-dried preparation
Experimental: as §1
Lactose monohydrate was dissolved in purified water in a concentration of 10 mg/mL and HP-β-CD in concentrations of 0, 10 and 200 mg/mL. The macrolide compound 11107B was dissolved in a concentration of 0.1 mg/mL in each of these three types of solution. 1 mL of each solution was put into vials and freeze-dried. The freeze-dried preparations thus obtained were stored for one month at −20° C., 40° C. and 60° C., after which 1 mL of 50% acetonitrile aqueous solution was added to each vial to dissolve the preparation. This product was analyzed by HPLC analysis under the conditions (A) of Example 1, and the purity of the 11107B was calculated according to the equation of Example 1.

[5] = β-CD concentration 0.15 mg/mL, PBS (-), 40° C.
[6] = β-CD concentration 0.5 mg/mL, PBS (-), 40° C.
[7] = β-CD concentration 1.5 mg/mL, PBS (-), 40° C.
[8] = β-CD concentration 5 mg/mL, PBS (-), 40° C.

Which results are given for CCC(O)C(C)C1OC1CC(C)/C=C/C=C(\C)C1OC(=O)CC(O)CCC(C)(O)C(OC(C)=O)/C=C/C1C (stereo not drawn) [11107B, (8E,12E,14E)-7-acetoxy-3,6,21-trihydroxy-6,10,12,16,20-pentamethyl-18,19-epoxytricosa-8,12,14-trien-11-olide]?
Purity of macorolide compound 11107B ([1]; CD not added, 0 h, Dulbecco's PBS (-)): 99%; Purity of macorolide compound 11107B ([1]; CD not added, 24 h, Dulbecco's PBS (-)): 62%; Purity of macorolide compound 11107B ([1]; CD not added, 48 h, Dulbecco's PBS (-)): 35%; Purity of macorolide compound 11107B ([1]; HP-α-CD (10 mg/mL solution mixed in equal volume with 0.1 mg/mL 11107B), 0 h, PBS (-)): 99%; Purity of macorolide compound 11107B ([1]; HP-α-CD (10 mg/mL solution mixed in equal volume with 0.1 mg/mL 11107B), 24 h, PBS (-)): 71%; Purity of macorolide compound 11107B ([1]; HP-α-CD (10 mg/mL solution mixed in equal volume with 0.1 mg/mL 11107B), 48 h, PBS (-)): 47%; Purity of macorolide compound 11107B ([1]; HP-β-CD (10 mg/mL solution mixed in equal volume with 0.1 mg/mL 11107B), 0 h, PBS (-)): 100%; Purity of macorolide compound 11107B ([1]; HP-β-CD (10 mg/mL solution mixed in equal volume with 0.1 mg/mL 11107B), 24 h, PBS (-)): 93%; Purity of macorolide compound 11107B ([1]; HP-β-CD (10 mg/mL solution mixed in equal volume with 0.1 mg/mL 11107B), 48 h, PBS (-)): 86%; Purity of macorolide compound 11107B ([1]; HP-γ-CD (10 mg/mL solution mixed in equal volume with 0.1 mg/mL 11107B), 0 h, PBS (-)): 99%; Purity of macorolide compound 11107B ([1]; HP-γ-CD (10 mg/mL solution mixed in equal volume with 0.1 mg/mL 11107B), 24 h, PBS (-)): 83%; Purity of macorolide compound 11107B ([1]; HP-γ-CD (10 mg/mL solution mixed in equal volume with 0.1 mg/mL 11107B), 48 h, PBS (-)): 67%; Purity of macorolide compound 11107B ([1]; α-CD (10 mg/mL solution mixed in equal volume with 0.1 mg/mL 11107B), 0 h, PBS (-)): 99%; Purity of macorolide compound 11107B ([1]; α-CD (10 mg/mL solution mixed in equal volume with 0.1 mg/mL 11107B), 24 h, PBS (-)): 71%; Purity of macorolide compound 11107B ([1]; α-CD (10 mg/mL solution mixed in equal volume with 0.1 mg/mL 11107B), 48 h, PBS (-)): 47%; Purity of macorolide compound 11107B ([1]; β-CD (10 mg/mL solution mixed in equal volume with 0.1 mg/mL 11107B), 0 h, PBS (-)): 100%; Purity of macorolide compound 11107B ([1]; β-CD (10 mg/mL solution mixed in equal volume with 0.1 mg/mL 11107B), 24 h, PBS (-)): 95%; Purity of macorolide compound 11107B ([1]; β-CD (10 mg/mL solution mixed in equal volume with 0.1 mg/mL 11107B), 48 h, PBS (-)): 90%; Purity of macorolide compound 11107B ([1]; γ-CD (10 mg/mL solution mixed in equal volume with 0.1 mg/mL 11107B), 0 h, PBS (-)): 100%; Purity of macorolide compound 11107B ([1]; γ-CD (10 mg/mL solution mixed in equal volume with 0.1 mg/mL 11107B), 24 h, PBS (-)): 88%; Purity of macorolide compound 11107B ([1]; γ-CD (10 mg/mL solution mixed in equal volume with 0.1 mg/mL 11107B), 48 h, PBS (-)): 77%; stabilization constant Kc ([2]; 0.05 mg/mL): ≥ 1500; k0 (kobs when no β-CD was present) ([2]; PBS (-), 40° C., estimated): 0.152 h⁻¹; kc (kobs when a large excess of β-CD was present) ([2]; from intercept of 1/(k0-kobs) versus inverse of β-CD concentration, PBS (-), 40° C.): 0.004 h⁻¹; kobs (apparent decomposition rate constant) ([2]; β-CD concentration 0 mg/mL, PBS (-), 40° C.): 0.152 h⁻¹; 1/(k0 − kobs) [2, 5]: 39.057; k0 − kobs [2, 5]: 0.026; kobs (apparent decomposition rate constant) [2, 5]: 0.126 h⁻¹; 1/(k0 − kobs) [2, 6]: 16.736; k0 − kobs [2, 6]: 0.060; kobs (apparent decomposition rate constant) [2, 6]: 0.092 h⁻¹; 1/(k0 − kobs) [2, 7]: 9.971; k0 − kobs [2, 7]: 0.100; kobs (apparent decomposition rate constant) [2, 7]: 0.052 h⁻¹; 1/(k0 − kobs) [2, 8]: 7.590; k0 − kobs [2, 8]: 0.132; kobs (apparent decomposition rate constant) [2, 8]: 0.020 h⁻¹; decomposition rate of included 11107B relative to 11107B that was not included ([2]; β-CD inclusion, PBS (-), 40° C.): 1/30; Purity of macorolide compound 11107B ([3]; CD not added, 0 h): 98%; Purity of macorolide compound 11107B ([3]; CD not added, 24 h): 59%; Purity of macorolide compound 11107B ([3]; CD not added, 48 h): 34%; Purity of macorolide compound 11107B ([3]; CD not added, 120 h): 3%; Purity of macorolide compound 11107B ([3]; methylated β-CD (10 mg/mL solution mixed in equal volume with 0.1 mg/mL 11107B), 0 h): 98%; Purity of macorolide compound 11107B ([3]; methylated β-CD (10 mg/mL solution mixed in equal volume with 0.1 mg/mL 11107B), 24 h): 95%; Purity of macorolide compound 11107B ([3]; methylated β-CD (10 mg/mL solution mixed in equal volume with 0.1 mg/mL 11107B), 48 h): 92%; Purity of macorolide compound 11107B ([3]; methylated β-CD (10 mg/mL solution mixed in equal volume with 0.1 mg/mL 11107B), 120 h): 80%; Purity of macorolide compound 11107B ([3]; β-CD (10 mg/mL solution mixed in equal volume with 0.1 mg/mL 11107B), 0 h): 98%; Purity of macorolide compound 11107B ([3]; β-CD (10 mg/mL solution mixed in equal volume with 0.1 mg/mL 11107B), 24 h): 95%; Purity of macorolide compound 11107B ([3]; β-CD (10 mg/mL solution mixed in equal volume with 0.1 mg/mL 11107B), 48 h): 90%; Purity of macorolide compound 11107B ([3]; β-CD (10 mg/mL solution mixed in equal volume with 0.1 mg/mL 11107B), 120 h): 74%; stability in a solid form in a freeze-dried preparation on addition of cyclodextrin [4]: sufficiently stabilized; Purity of macorolide compound 11107B ([4]; HP-β-CD concentration 10 mg/mL, stored one month at 40° C.): 99.76 ± 0.08%; Purity of macorolide compound 11107B ([4]; HP-β-CD concentration 10 mg/mL, stored one month at 60° C.): 98.60 ± 0.06%; Purity of macorolide compound 11107B ([4]; HP-β-CD concentration 10 mg/mL, stored one month at −20° C.): 99.73 ± 0.01%; Purity of macorolide compound 11107B ([4]; HP-β-CD concentration 200 mg/mL, stored one month at 40° C.): 99.82 ± 0.02%; Purity of macorolide compound 11107B ([4]; HP-β-CD concentration 200 mg/mL, stored one month at 60° C.): 98.90 ± 0.05%; Purity of macorolide compound 11107B ([4]; HP-β-CD concentration 200 mg/mL, stored one month at −20° C.): 99.70 ± 0.00%; Purity of macorolide compound 11107B ([4]; HP-β-CD not added, stored one month at 40° C.): 98.17 ± 0.12%; Purity of macorolide compound 11107B ([4]; HP-β-CD not added, stored one month at 60° C.): 94.63 ± 0.11%; Purity of macorolide compound 11107B ([4]; HP-β-CD not added, stored one month at −20° C.): 99.56 ± 0.01%
